Experimental findings from patent US20230364029A1, “POLYMORPHIC FORMS OF (R)-2-HYDROXY-2-METHYL-4-(2,4,5-TRIMETHYL-3,6-DIOXOCYCLOHEXA-1,4-DIENYL)BUTANAMIDE” (PTC THERAPEUTICS, INC., priority 2014, published 2023) are described below.

What all share (type): physicochemical
Data set [1] in a line: 7 day elevated aqueous humidity studies. The settings on record: for Visual Observations 1 day / Visual Observations 7 day / XRPD [Pattern] 7 day: > 95 %RH at Ambient; for XRPD [Pattern] 7 day: form after 7 days; for Stability to elevated humidity: Example 8, summary statement. Here is the method: 7 day elevated aqueous humidity experiments were performed on all Patterns A, B, C, D, E and F at ambient conditions at > 95%RH (Table 17). Approximately 30 mg of each pattern was weighed into a 4 ml glass vial. The uncovered 4 ml vial was inserted into a 20 ml scintillation vial half filled with water and capped. Following 24 hours of equilibration, visual inspection was performed to check for changes in physical appearance, however no change was observed.

A short description of data set [2]: Aqueous solubility (HPLC). The settings on record: water, ambient conditions, 24 hours of equilibration. As for the experimental part: Aqueous solubility of Patterns A, B, C, E and F was performed using an Agilent HPLC system. Approximately 10-20 mg of each form was charged to a 2 mL glass vial loaded with a magnetic stir bar and added 2 mL of water. The samples were allowed to stir overnight at ambient conditions. Following 24 hours of equilibration the samples were centrifuged and decanted into HPLC vials. A calibration curve was generated based on Pattern A in MeOH at 0.05, 0.1, 0.5 and 1.0 mg/mL. Following injection of the standard curve, the samples were run as is.

A short description of data set [3]: Moisture sorption analysis. Particulars: for XRPD following moisture sorption analysis: after 0-95% RH cycles at 25° C.; for Hygroscopicity: moisture sorption, 0-95% RH cycles; for Hygroscopicity / Water adsorbed / Hysteresis upon desorption: 25° C.; for Water adsorbed: at 95 %RH; for Hysteresis upon desorption: moisture sorption-desorption. As for the experimental part: Moisture sorption analysis of the starting material was performed by equilibrating the sample at 25° C. and 50% RH to simulate ambient lab conditions. Humidity then decreased to 0% RH, increased from 0 to 95% RH, reduced from 95 to 0% RH, increased from 0 to 95 %RH and then decreased from 95 to 50% RH. Each point represents the estimated asymptotic weight for each humidity or weight. […] No hysteresis was observed upon desorption (FIG. 14).
Moisture sorption analysis of Pattern E (from the 300 mg scale lot) was performed by equilibrating the sample at 25° C. and 50% RH to simulate ambient lab conditions. Humidity was then decreased to 0% RH, increased from 0 to 95% RH, reduced from 95 to 0% RH, increased from 0 to 95 %RH and then decreased from 95 to 50% RH. Each point represents the estimated asymptotic weight for each humidity or weight. […] No hysteresis was observed upon desorption (FIG. 19).
Moisture sorption analysis of Pattern C (300 mg lot) was performed by equilibrating the sample at 25° C. and 50% RH to simulate ambient lab conditions. Humidity was then decreased to 0% RH, increased from 0 to 95% RH, reduced from 95 to 0% RH, increased from 0 to 95%RH and then decreased from 95 to 50% RH. Each point represents the estimated asymptotic weight for each humidity or weight. […] This increased the total water to about 6% which is the water content of mono-hydrate. However, upon reducing the relative humidity, the solid lost its water. Therefore this could be a channel hydrate. No hysteresis was observed upon desorption (FIG. 24).
Moisture sorption analysis of Pattern B (300 mg lot) was performed by equilibrating the sample at 25° C. and 50% RH to simulate ambient lab conditions. Humidity then decreased to 0% RH, increased from 0 to 95% RH, reduced from 95 to 0% RH, increased from 0 to 95 %RH and then decreased from 95 to 50% RH. Each point represents the estimated asymptotic weight for each humidity or weight. […] The major weight loss at the beginning was due to loss of solvent.
Moisture sorption analysis of Pattern F (from Example 6) was performed by equilibrating the sample at 25° C. and 50% RH to simulate ambient lab conditions. Humidity was then decreased to 0% RH, increased from 0 to 95% RH, reduced from 95 to 0% RH, increased from 0 to 95 %RH and then decreased from 95 to 50% RH. Each point represents the estimated asymptotic weight for each humidity or weight. […] The major weight loss at the beginning is due to loss of solvent.

Converted amounts (≈) assume the structure as drawn.

`CC1=C(C)C(=O)C(CC[C@@](C)(O)C(N)=O)=C(C)C1=O` [Pattern B, (R)-2-hydroxy-2-methyl-4-(2,4,5-trimethyl-3,6-dioxocyclohexa-1,4-dienyl)butanamide]: in data set [1], the “Visual Observations 1 day” value is given as “Yellow solids”, the “Visual Observations 7 day” value was “Yellow solids” and the “XRPD [Pattern] 7 day” value is “mixture of Patterns A/B”. The “XRPD [Pattern] 7 day” value in data set [1] (listed as B) was “Crystalline [Mixture of Patterns A/B]”. Besides, the “Solubility (aqueous)” value in data set [2] was found to be 1300 µg/mL (≈ 4.9 mM). In data set [3], the “XRPD following moisture sorption analysis” value is “consistent with Pattern A” and the Hygroscopicity entry was “non-hygroscopic”. For the same compound, the Hygroscopicity result in data set [3] (listed as Form IV) is given as “non-hygroscopic”.

`CC1=C(C)C(=O)C(CC[C@@](C)(O)C(N)=O)=C(C)C1=O` [Pattern C, (R)-2-hydroxy-2-methyl-4-(2,4,5-trimethyl-3,6-dioxocyclohexa-1,4-dienyl)butanamide]: in data set [1], the “Visual Observations 1 day” value was “Yellow solids”, the “Visual Observations 7 day” value was “Yellow solids”, the “XRPD [Pattern] 7 day” value was “no change in form” and the “Stability to elevated humidity” value was “stability to elevated humidity”. The “XRPD [Pattern] 7 day” value in data set [1] (listed as C) is “Crystalline [Pattern C]”. The “Solubility (aqueous)” value in data set [2] turned out to be 1320 µg/mL (≈ 4.98 mM). For the same compound, in data set [3], the “XRPD following moisture sorption analysis” value is listed as “consistent with Pattern C”, the Water adsorbed was found to be 2%, the Hygroscopicity entry is recorded as “slightly hygroscopic” and the Hysteresis upon desorption result is recorded as “No hysteresis”. In addition, the “Total water after adsorption” value in data set [3] (at 95%RH) was “about 6%”.

Consider `CC1=C(C)C(=O)C(CC[C@@](C)(O)C(N)=O)=C(C)C1=O` [Pattern D, (R)-2-hydroxy-2-methyl-4-(2,4,5-trimethyl-3,6-dioxocyclohexa-1,4-dienyl)butanamide], for which, in data set [1], the “Visual Observations 1 day” value is on record as “Yellow solids”, the “Visual Observations 7 day” value is given as “Yellow solids” and the “XRPD [Pattern] 7 day” value is “mixture of Patterns D/B”. The “XRPD [Pattern] 7 day” value in data set [1] (listed as D) was “Crystalline [Mixture of Patterns D/B]”.

`CC1=C(C)C(=O)C(CC[C@@](C)(O)C(N)=O)=C(C)C1=O` [Pattern E, (R)-2-hydroxy-2-methyl-4-(2,4,5-trimethyl-3,6-dioxocyclohexa-1,4-dienyl)butanamide]: in data set [1], the “Visual Observations 1 day” value was “Yellow solids”, the “Visual Observations 7 day” value was “Yellow solids”, the “XRPD [Pattern] 7 day” value was “no change in form” and the “Stability to elevated humidity” value is recorded as “stability to elevated humidity”. Moreover, the “XRPD [Pattern] 7 day” value in data set [1] (listed as E) was “Crystalline [Pattern E]”. In addition, in data set [2], the “Solubility (aqueous)” value is 1320 µg/mL (≈ 4.98 mM). Moreover, in data set [3], the “XRPD following moisture sorption analysis” value is listed as “consistent with Pattern E”, the Water adsorbed is reported as 0.2%, the Hygroscopicity result is recorded as “non-hygroscopic” and the Hysteresis upon desorption result was “No hysteresis”. The Hygroscopicity result in data set [3] (listed as Form II) is recorded as “non-hygroscopic”.

Take `CC1=C(C)C(=O)C(CC[C@@](C)(O)C(N)=O)=C(C)C1=O` [Pattern F, (R)-2-hydroxy-2-methyl-4-(2,4,5-trimethyl-3,6-dioxocyclohexa-1,4-dienyl)butanamide]: in data set [1], the “Visual Observations 1 day” value was “Yellow solids”, the “Visual Observations 7 day” value is on record as “Yellow solids” and the “XRPD [Pattern] 7 day” value is reported as “converted to Pattern E”. The “XRPD [Pattern] 7 day” value in data set [1] (listed as F) was “Crystalline [Pattern E]”. The “Solubility (aqueous)” value in data set [2] stood at 1360 µg/mL (≈ 5.13 mM). Further, in data set [3], the “XRPD following moisture sorption analysis” value is “consistent with Pattern E” and the Hygroscopicity result is reported as “non-hygroscopic”. Besides, the Hygroscopicity entry in data set [3] (listed as Form VI) is “non-hygroscopic”.
